In patent publication US20170339957A1, “AQUEOUS DISPERSIONS” (Rohm and Haas Company, priority 2011, published 2017):

Legend:
[1] = Protocol 1: dissolving BIT in basic solution (exotherm peak, pH, dissolution and inherent precipitation temperature); assay type: physicochemical
Text: “Protocol 1” means the following: A mixture (herein “mixture 1”) was formed as follows: 151.18 g of BIT paste (concentration 83% to 85% BIT by weight based on the weight of the paste) was mixed with basic solution and with water. The amount of basic solution was chosen to have equivalent ratio of 1:1 with BIT, and the amount of water was chosen to make Mixture 1 have the desired concentration of BIT. In some cases, the process of mixing the ingredients of Mixture 1 is exothermic; in such cases, the peak temperature reached by the mixture was recorded as the “exotherm peak.” From that mixture, a sample of 100 g (herein the “test1 batch”) was used. If some or all of the BIT was not dissolved, the test1 batch was heated (up to a maximum of 61° C.), and if there was a temperature of 61° C. or below at which all the BIT was dissolved, that temperature was recorded as the “dissolution temperature.” If BIT is all dissolved at ambient temperature, the dissolution temperature is herein taken to be 23° C. Then, the inherent precipitation temperature was observed by cooling the test 1 batch to 0° C. or to a point at which BIT precipitated, whichever temperature is higher. Then, the test 1 batch was heated to a temperature (herein “T2”) at or above the dissolution temperature; while the solution was at temperature T2, thickener was added and acid solution was added.
In some of the Examples below, Protocol 1 was performed repeatedly, using various basic solutions and various concentrations of BIT. The purpose of these repeated performances of Protocol 1 was to answer the following question: “While using a specific basic solution and using temperatures between approximately 23° C. and approximately 60° C., when making aqueous mixture (I), what range of BIT concentration is possible?”

[2] = pH 7.5 or lower; cited from earlier work

O=c1[nH]sc2ccccc12 [BIT, 1,2-Benzisothiazolin-3-one]
BIT concentration range for making aqueous mixture (I) ([1]; using ammonia): 5%
BIT concentration range for making aqueous mixture (I) ([1]; using diaminoethane): 5%
BIT concentration range for making aqueous mixture (I) ([1]; using mono-ethanolamine): 5%
solubility in water [2]: low solubility
